What was measured:
[1] = biological target: T1, cGMP-PDE V (Homo sapiens, UniProt O76074); assay: cGMP-PDE V inhibition (isozyme isolated from cardiovascular tissue); format: biochemical, various animal species and man
T1 construct: isolated from cardiovascular tissues (heart and aorta); from tissue; host or cells: cardiovascular tissues (heart and aorta)
Source text: The cGMP-PDE and other PDE isozymes were isolated from cardiovascular tissues (heart and aorta) of various animal species and man by anion-exchange and affinity chromatography as described by Silver et al., Sec. Messeng. Phos. […] Cyclic Nucleotide Res. 10:69-92.

[2] = test system: Spontaneously hypertensive rats (SHR); assay: antihypertensive activity in conscious spontaneously hypertensive rats (mean arterial pressure); format: in vivo; settings: Rattus norvegicus, SHR iv; for ED25: 5 min, 5 min after dose, cumulative dosing, read-out: ED25, change in mean arterial pressure
Procedure: After a 2 day recovery from surgery, three baseline blood pressure measurements were made at 5 min intervals in conscious SHR. Compounds to be tested or vehicle were then administered intravenously in a dose-dependent manner (0.3-10 mg base/kg) while arterial pressure was recorded continuously on a polygraph. The mean arterial pressure response was measured 5 minutes after the administration of each dose of the test compound and the next dose given in a cumulative dose fashion. The response to each dose of the test compound was calculated as the difference from the mean of the three baseline measurements.

[3] = test system: Spontaneously hypertensive rats (SHR); assay: as above; format: in vivo; settings: Rattus norvegicus
[4] = test system: Spontaneously hypertensive rats; assay: reversal of nitroglycerin-induced tolerance in spontaneously hypertensive rats; format: in vivo, Spontaneously hypertensive rats (17-25 weeks of age); settings: for Percent (%) Reversal of Nitroglycerin-induced Tolerance: iv pretreatment 5-10 min before nitroglycerin challenge
Procedure: Spontaneously hypertensive rats (17-25 weeks of age) were made nitroglycerin tolerant by repeated administration of high doses of nitroglycerin (100 mg/kg, s.c., 3 times/day for 3 consecutive days). To confirm tolerance challenge doses of nitroglycerin were administered intravenously at doses ranging from 1-300 μg/kg and the maximum change in mean arterial pressure (MAP) for each dose was recorded. Groups of tolerant rats were pretreated with the compounds of the invention (tolerant pretreated group) or with vehicle (0.05N NaOH) (tolerant vehicle pretreated group) intravenously 5-10 minutes prior to administration of challenge doses of nitroglycerin. The administration of challenge doses of nitroglycerin to non-tolerant rats (the non-tolerant group) caused a dose-dependent decrease in MAP of between 10 to 40 mm Hg. […] The area under the dose-MAP curve was calculated for the non-tolerant group and for the tolerant vehicle pretreated group and the tolerant pretreated group. The percent reversal of nitrate-inducedtolerance was calculated as follows:
Percent Reversal=(AUCtol-pretreated -AUCtol-veh)/(AUCnontol
wherein: AUCnontol =the area under the dose-MAP curve for the non-tolerant group.
AUCtol-veh =the area under the dose-MAP curve for the tolerant vehicle pretreated group.
AUCtol-pretreated =the area under the dose-MAP curve for the tolerant pretreated group.
The following table summarizes the results obtained from the testing of representative compounds of the invention.

Row | Compound | IC50 [1] [nM] | ED25 [2] [mg/kg] | Percent (%) Reversal of Nitroglycerin-induced Tolerance ([4]; Dose 1.0 mg/kg) [%] | change in vivo at 10 mg/kg [2] [%] | also measured
1 | CCc1nn(C2CCCC2)c2nc(Cc3ccccc3)[nH]c(=O)c12 [1(b), 1-cyclopentyl-3-ethyl-6-(phenylmethyl)-pyrazolo[3,4-d]pyrimdin-4-one] | 10 |  |  |  | change in vivo at 1 mg/kg ([2]; 1 mg/kg): -15%; change in vivo at 30 mg/kg ([3]; SHR iv, 30 mg/kg): -29%
2 | CCc1[nH]n(C2CCCC2)c2nc(Cc3ccc(O)cc3)nc(=O)c1-2 [Example 7, 1-cyclopentyl-3-ethyl-6-(4-hydroxyphenylmethyl)pyrazolo[3,4-d]pyrimidin-4-one] | 19 | 4.6 | 45 |  | Percent (%) Reversal of Nitroglycerin-induced Tolerance ([4]; Dose 0.3 mg/kg): 46%
3 | O=[N+]([O-])OCC(CO[N+](=O)[O-])O[N+](=O)[O-] [nitroglycerin, reference compound] |  |  |  |  | hypotensive response to nitroglycerin challenge ([4]; tolerant vehicle pretreated group, 1-300 μg/kg iv): significant reduction of the hypotensive response
4 | CCc1[nH]n(C2CCCC2)c2nc(Cc3ccc(OC)cc3)nc(=O)c1-2 [Example 6, 1-cyclopentyl-3-ethyl-6-(4-methoxyphenylmethyl)pyrazolo[3,4-d]pyrimidin-4-one] | 23 | 8.4 | 69 | -30 | Percent (%) Reversal of Nitroglycerin-induced Tolerance ([4]; Dose 3.0 mg/kg): 140%
5 | CCc1[nH]n(C2CCCC2)c2nc(Cc3ccc(N)cc3)nc(=O)c1-2 [Example 26, 1-cyclopentyl-3-ethyl-6-(4-aminophenylmethyl)pyrazolo[3,4-d]pyrimidin-4-one] | 8.7 | 4.2 |  | -46 | change in vivo at 10 mg/kg ([3]; SHR, 10 mg/kg, po): -56%

From US5656629A, “6-substituted pyrazolo (3,4-d)pyrimidin-4-ones and compositions and methods of use thereof” (Sanofi Winthrop, Inc., priority 1995, dated 1997)
